Measurements from patent US20120258944A1, “ANTIOXIDANTS FOR USE IN THERAPY” (priority 2009, published 2012).

Columns and labels:
[1] = two-phase model, N-acetylcysteine in the aqueous phase; cited from earlier work
PLB985 cells = assay: Resazurin based in vitro toxicology assay (TOX8); format: cell-based, human; conditions: PLB985, 3 hours, up to 120 μM
Procedure: The viability of cells treated with the compounds was also analyzed using a Resazurin based in vitro Toxicology Assay Kit (SigmaAldrich TOX8). Resazurin systems measure the metabolic activity of living cell. Resazurin in its oxidized form (blue) is reduced (red) by living cells and the amount of dye conversion is measured fluorometrically or spectrophotometrically indicating the degree of cytotoxicity.
1) 75 micro-l of PLB985 cells (1 million cells/ml) is mixed with 25 micro-l of Compounds 1, 2, 3 and D (480, 120, 15 and 0.48 micro-M) in a 96 well plate in duplicates. 2) 10 micro-L of Resazurin solution is added to each well and the plate is incubated at 37° C. for 3 hours. 3) Spectrophotometrical analysis is performed in plate reader at 600 and 690 nm.
FIG. 18: Cell viability of compounds in human PLB-985 cell line. Concentrations of compounds 120; 60; 30; 3.75; 0.12 and […] final concentrations. Measurement that indicates cell cytotoxicity (In vitro toxicology assay, TOX-8). The bars show increased level of cytotoxicity (analysis of absorbance of 600 nm substracted with absorbance 690 nm).

[2] = test system: MG-63, HEK-293, SHSY-5y, MRC-5 and CaCo-2-cells; assay: Alamar Blue cell viability/proliferation assay; format: cell-based, human
Excerpt: Alamar Blue is a non-toxic metabolic indicator for viable cells. Following uptake, the dye becomes reduced and causes a change in the colour of the cell. The colour change correlates reasonably well with the number of living cells in the sample.
Cells w/o antioxidant were used as controls.
Alamar Blue is a non-toxic metabolic indicator for viable cells. Upon uptake into the cell the dye becomes reduced and changes colour. The colour change correlates approximately with the number of living cells in the sample.

[3] = ABTS radical cation assay (TEAC) in aqueous PBS buffer; conditions: 6.08 micro-M
Procedure: In order to investigate its aqueous phase performance, we thought that it would be interesting to determine its Trolox Equivalent Antioxidant Capacity (TEAC) (Free Rad. Biol. Med. 1999, 26, 1231-1237) which has been used to quantify the antioxidant activity of biological fluids, extracts and pure compounds. The TEAC value is defined as the concentration of Trolox which has an equivalent antioxidant potential as a 1 mM solution of the compound under investigation (Free Rad. Biol. Med. 1996, 20, 933-956).
A 2,2′-azinobis(3-ethylbenzothiazoline-6 sulphonic acid radical cation (ABTS•+) assay was used to determine relative TEAC values. To a preformed solution of ABTS•+ in PBS buffer, pH 7.4, with an absorbance slightly above 0.7 were added various amounts (3-30 microM) of organoselenium compound 1, Trolox, sodium ascorbate and N-acetylcysteine. The absorbance at 734 inn was recorded immediately after mixing and then every minute for the next 8 minutes.
Antioxidant activity as determined by the capacity of the antioxidant to decolorize the ABTS^+ radical cation was determined essentially as described in the literature (Acc. Chem. Res. 1986, 19, 194-201). […] In a typical experiment, the antioxidant (1.52 micro-L of a 3.00 mM solution in MeOH or water; final concentration=6.08 micro-M) was syringed into 0.750 mL of the ABTS^+ radical cation solution. After initial mixing, the absorbance was recorded every minute for the next eight minutes.

THP-1 cells = assay: Chemiluminescence (Diogenes), ROS production in PMA stimulated THP-1 cells; format: cell-based, human
Excerpt: We investigated the capacity of the material to quench ROS produced by freshly isolated human neutrophils or THP-1 cells (human acute monocytic leukemia cell line) stimulated with PMA (Phorbol Myristate Acetate). The antioxidant capacity of selenide 1 was again compared to those of Trolox, a water soluble derivative of vitamin E, which is commonly used in biological and biochemical applications to reduce oxidative stress or damage.
The generation of oxygen free radicals over time from macrophages (THP-1) was monitored for 180 minutes in 96-well white optiplates (Greiner) using a using a TECAN reader and Diogenes chemiluminescence kit (National Diagnostics). Approximately 200 000 THP-1 cells diluted in HBSS containing different concentrations of the antioxidants 1 and Trolox were added per well to a 96 well plate together with the Diogenes reagent 20 v/% (following the manufacturers recommendations) and 40 micro-M Phorbol Myristate Acetate (PMA). Luminescence intensity was read every 6 min. The measurements were commonly performed on quadruplicate samples

[4] = test system: human umbilical vein endothelial cells (HUVEC); assay: XTT in vitro toxicology test in human umbilical vein endothelial cells; format: cell-based; conditions: human
Procedure: As a negative control, cells incubated with medium containing 0.5% DMSO (corresponding to the highest DMSO concentration above) was used. As a positive control, cells were incubated in the presence of 20% EtOH.
After the incubation with the compounds, the wells were washed with PBS to remove substances which could interfere with the assay. 40 μl of fresh medium 200 without phenol red was added together with 10 μl XTT substance (according to the manufacturer's instructions). The plates were incubated for 8 hrs and the colour development was monitored by measuring the absorbance at 450 nm.
After incubation, the number of viable cells was assessed by observing the amount of metabolized XTT (2,3-bis[2-methoxy-4-nitro-5-sulphophenyl]-2H-tetrazolium-5-carboxyanilide inner salt).

CC1Cc2cc(O)ccc2[Se]1 (stereo not drawn) [Compound 1]
Inhibited Rate of Linoleic Acid Peroxidation (Rinh) [1]: 69 µM/h
cytotoxicity (PLB985 cells): no signs of cytotoxicity
cell growth (Alamar Blue) [2]: normal cell growth patterns
concentration until which no sign of cell death or decreased proliferation ([2]; human): 235 micro-M
TEAC value ([3]; PBS buffer pH 7.4, after 5 min): 1.6
number of ABTS radicals quenched by each molecule of the antioxidant ([3]; PBS buffer pH 7.4, versus reference antioxidants): clearly outperformed both sodium ascorbate and Trolox
effect on ROS production in THP-1 (THP-1 cells; 1, 10 and 20 micro-M, FIG. 24): clear, dose dependent, quenching/inhibiting effect
quenching of ROS from THP-1 compared with Trolox (THP-1 cells; 20 micro-M each): considerably more effective than Trolox
relative toxicity among the compounds [4]: far less toxic than compounds 2 and 3
toxic concentration ([4]; 24 h): 500 µM
toxic concentration ([4]; 48 h): 500 µM
toxic concentration ([4]; 72 h): 200 µM
